Consider two compounds from patent US20080262097A1, “Formulations” (priority 2005, published 2008).

One assay concerns S. aureus ATCC 12602. The assay is described as follows: MIC assay. Type of assay: cell-based. As to conditions: Staphylococcus aureus, ATCC12602. As for the experimental part:
(§1) The staphylococci and enterococci were cultured and maintained on Mueller-Hinton Medium (agar and broth) at pH 7.2; they were incubated aerobically at 37° C. for 24 hours.
(§2) This is a standard international method for quantitatively assessing the antimicrobial activity of a compound in a liquid medium. The method used a 96-well microtitre plate, capable of holding about 200 μl of liquid per well. […] The culture media were as described above for the relevant test organisms.
(§3) The wells were inoculated with a liquid suspension of freshly grown micro-organism and incubated under the conditions described above. After incubation, the microtitre plate was examined visually (with the aid of a light box) for cell pellets in and/or opaque wells, which would indicate microbial growth. The MIC value was recorded as the lowest concentration of test compound required to inhibit microbial growth, ie, the lowest concentration for which the liquid in the well remained clear.
(§4) The assays were conducted in duplicate and included both negative (culture medium only) and positive (culture medium, diluting solvent and inoculum) controls.

The subject of another assay is S. aureus ATCC 25923. Description: MIC assay. Type of assay: cell-based. As to conditions: Staphylococcus aureus, ATCC25923. As to the method: as §1, §2, §3, §4
The next assay deals with S. aureus ATCC 12607. Description: MIC assay. Type of assay: cell-based. As to conditions: Staphylococcus aureus, ATCC12607. As to the method: as §1, §2, §3, §4
Assay [1] concerns Staphylococcus auricularis ATCC 33753. Description: MIC assay. Type of assay: cell-based. As to conditions: ATCC33753. As for the experimental part:
as §1, §2, §3, §4

The subject of assay [2] is S. epidermidis (NCTC 11047). The assay is described as follows: MIC assay. As to conditions: Staphylococcus epidermidis, NCTC11047. Type of assay: cell-based. As to the method:
as §1, §2, §3, §4

Assay [3] has as its system Staphylococcus hominis ATCC 27844. Description: MIC assay. Type of assay: cell-based. As to conditions: ATCC27844. As for the experimental part: as §1, §2, §3, §4
The next assay concerns S. aureus CPHL EMRSA 17. The assay is described as follows: MIC assay. The class given is cell-based. As to conditions: Staphylococcus aureus. As for the experimental part:
as §1, §2, §3, §4

For assay [4], the system named is Staphylococcus capitis ATCC 27840. The assay is described as follows: MIC assay. Type of assay: cell-based. As to conditions: ATCC27840. As for the experimental part:
as §1, §2, §3, §4

In a further assay the test system is S. aureus ATCC 12606. The assay is described as follows: MIC assay. As to conditions: Staphylococcus aureus, ATCC12606. The class given is cell-based. As for the experimental part: as §1, §2, §3, §4
The next assay has as its system S. aureus CPHL VISA Mu3. The assay is described as follows: MIC assay. Type of assay: cell-based. As to conditions: Staphylococcus aureus. As to the method: as §1, §2, §3, §4
The test system of assay [5] is Staphylococcus haemolyticus ATCC 29970. Description: MIC assay. As to conditions: ATCC29970. Type of assay: cell-based. As for the experimental part:
as §1, §2, §3, §4

Another assay deals with S. aureus ATCC 12605. The assay is described as follows: MIC assay. Type of assay: cell-based. As to conditions: Staphylococcus aureus, ATCC12605. As to the method:
as §1, §2, §3, §4

Assay [6] concerns Staphylococcus simulans ATCC 27848. The assay is described as follows: MIC assay. Type of assay: cell-based. As to conditions: ATCC27848. As to the method: as §1, §2, §3, §4
Assay [7] deals with S. aureus CPHL GISA HO41340156. The assay is described as follows: MIC assay. The class given is cell-based. As to conditions: Staphylococcus aureus. As to the method: as §1, §2, §3, §4
The subject of a further assay is S. aureus CPHL VISA Mu50. Description: MIC assay. As to conditions: Staphylococcus aureus. Type of assay: cell-based. As to the method:
as §1, §2, §3, §4

The next assay has as its system S. aureus ATCC 12604. The assay is described as follows: MIC assay. The class given is cell-based. As to conditions: Staphylococcus aureus, ATCC12604. As to the method:
as §1, §2, §3, §4

The subject of assay [8] is Staphylococcus cohnii ATCC 29974. Description: MIC assay. The class given is cell-based. As to conditions: ATCC29974. As to the method: as §1, §2, §3, §4
A further assay has as its system S. aureus ATCC 12600-U. The assay is described as follows: MIC assay. The class given is cell-based. As to conditions: Staphylococcus aureus, ATCC12600. As for the experimental part:
as §1, §2, §3, §4

The next assay deals with S. aureus CPHL EMRSA 16. Description: MBC assay. The class given is cell-based. As to conditions: Staphylococcus aureus; S. aureus CPHL EMRSA 16 (resistance Met/β-lactams). As for the experimental part:
(§5) Other staphylococcal strains were also tested, as described in Example 5 below. These included certain antibiotic resistant staphylococci, such as the methicillin resistant S. aureus (MRSA) strains EMRSA-15 and EMRSA-16, both available from the Central Public Health Laboratory (CPHL), Colindale, UK. These strains are resistant not only to all beta-lactams but also to a number of other antibiotics in clinical use, making them a serious threat to human health. They are also responsible for the majority (>95%) of hospital-acquired MRSA infections in the UK.
as §1
(§6) This assay, normally carried out after an MIC assay, determines the minimum concentration of a compound that is lethal to the micro-organism being tested.
(§7) These samples were then individually sub-cultured on non-selective agar medium, under the incubation conditions described above. Following incubation they were examined visually for bacterial growth.

In another assay the test system is S. aureus CPHL EMRSA 15. The assay is described as follows: MBC assay. The class given is cell-based. As to conditions: Staphylococcus aureus. As to the method:
as §5, §1, §6, §7

A further assay deals with P. acnes PRP-010. Description: Disc diffusion assay (DDA). Type of assay: cell-based, Propionibacterium acnes. As to conditions: zone diameter, 200 μg per disc. As to the method: (§8) Other propionibacterial strains were also tested, as described in Example 8 below. These included certain antibiotic resistant propionibacteria, such as the two P. acnes strains PRP-010 and PRP-053 which are resistant respectively to macrolides-lincosamides-streptogramins-ketolides (MLSK) and to macrolides-lincosamides-streptogramins (MLS) and tetracycline—in other words, PRP-010 is resistant to erythromycin and clindamycin, and […] to erythromycin, clindamycin and tetracycline.
(§9) The Propionibacterium spp organisms were cultured and maintained on Wilkins-Chalgren Anaerobe Medium (agar and broth) at pH 6.0; cultures were incubated anaerobically at 37° C. for 72 hours.
(§10) A sterile paper disc was impregnated with a sample of the test compound and a minimum of 30 minutes allowed for the solvents to evaporate as far as possible. The disc was then placed on an agar plate onto which the test micro-organism had been inoculated. The plate was then incubated under the conditions described above, following which it was examined visually for signs of bacterial growth. If the test compound had antimicrobial activity, a circular zone of no growth would be obtained around the disc. The diameter of this zone of “inhibition” was measured using a ProtoCOL™ automated zone sizer (Synbiosis, Cambridge, UK). In general, a greater diameter and/or area of the zone of inhibition indicates a greater antimicrobial activity in the relevant test compound, although other factors such as test compound mobility through the agar gel may also influence the result.
(§11) The area of the zone of inhibition was calculated from the measured zone diameter (D) using the formula π(D/2)^2.
For orientation: A growth-free zone around the sample is the usual read-out of agar diffusion tests.

Another assay deals with P. acnes PRP-053. Description: Disc diffusion assay (DDA). The class given is cell-based, Propionibacterium acnes. As to conditions: zone diameter, 200 μg per disc. As for the experimental part:
as §8, §9, §10, §11

≈ marks a conversion by molar mass, not a printed value. Where two headings read alike, the source gives them in different places.

A word on the MIC: it is the least concentration at which growth counts as inhibited. The term MBC denotes the smallest concentration meeting the test's criterion for killing.

`CC(C)(C)c1cc(O)ccc1O` [TBHQ, t-butyl hydroquinone]: the MIC against S. aureus ATCC 12602 is 3.9 mg/L (≈ 23.5 µM); in the assay with S. aureus ATCC 25923, 7.8 mg/L (≈ 46.9 µM); in the assay on S. aureus ATCC 12607, 3.9 mg/L (≈ 23.5 µM); in [1] (Staphylococcus auricularis ATCC 33753, read-out: MIC), 0.98 mg/L (≈ 5.9 µM); in assay [2] it was 3.9 mg/L (≈ 23.5 µM); in assay [3] (Staphylococcus hominis) it was 1.95 mg/L (≈ 11.7 µM). The minimal inhibitory concentration (MIC) is 1.95 mg/L (≈ 11.7 µM) in the assay on S. aureus CPHL EMRSA 17; 1.95 to 3.9 mg/L (≈ 11.7 to 23.5 µM) in assay [4] (Staphylococcus capitis); 7.8 mg/L (≈ 46.9 µM) in the assay with S. aureus ATCC 12606; 3.9 mg/L (≈ 23.5 µM) with S. aureus CPHL VISA Mu3; 3.9 mg/L (≈ 23.5 µM) in assay [5] (Staphylococcus haemolyticus); 3.9 mg/L (≈ 23.5 µM) in the assay with S. aureus ATCC 12605. Moreover, the MIC in assay [6] (Staphylococcus simulans) turned out to be 7.8 mg/L (≈ 46.9 µM); in assay [7] it was 7.8 mg/L (≈ 46.9 µM); in the assay with S. aureus CPHL VISA Mu50, 3.9 mg/L (≈ 23.5 µM); with S. aureus ATCC 12604, 7.8 mg/L (≈ 46.9 µM); in assay [8], 3.9 mg/L (≈ 23.5 µM); with S. aureus ATCC 12600-U, 3.9 mg/L (≈ 23.5 µM). In addition, the minimal bactericidal concentration (MBC) is 3.9 mg/L (≈ 23.5 µM) against S. aureus CPHL EMRSA 16 and 3.9 mg/L (≈ 23.5 µM) with S. aureus CPHL EMRSA 15 (S. aureus CPHL EMRSA 15 (resistance Met/β-lactams), read-out: MBC). The DDA with P. acnes PRP-010 was 18.71 (±0.18) mm; in the assay on P. acnes PRP-053, 23.49 (±1.44) mm.
As for `O=C(OOC(=O)c1ccccc1)c1ccccc1` [benzoyl peroxide], the minimum inhibitory concentration (MIC) in the assay with S. aureus ATCC 12602 amounted to 125 mg/L (≈ 516 µM); in the assay on S. aureus ATCC 25923 (S. aureus ATCC 25923, read-out: MIC), 250 mg/L (≈ 1030 µM); in the assay with S. aureus ATCC 12607 (S. aureus ATCC 12607, read-out: MIC), 250 mg/L (≈ 1030 µM); in assay [1] (Staphylococcus auricularis) it was 15.6 mg/L (≈ 64.4 µM); in assay [2] (S. epidermidis NCTC 11047, read-out: MIC) it was 250 mg/L (≈ 1030 µM); in assay [3] (Staphylococcus hominis ATCC 27844, read-out: MIC), 250 mg/L (≈ 1030 µM). Further, the minimal inhibitory concentration (MIC) came to 125 mg/L (≈ 516 µM) in the assay with S. aureus CPHL EMRSA 17; 250 mg/L (≈ 1030 µM) in [4] (Staphylococcus capitis ATCC 27840, read-out: MIC); 250 mg/L (≈ 1030 µM) with S. aureus ATCC 12606 (S. aureus ATCC 12606, read-out: MIC); 125 mg/L (≈ 516 µM) in the assay on S. aureus CPHL VISA Mu3; 250 mg/L (≈ 1030 µM) in assay [5] (Staphylococcus haemolyticus ATCC 29970, read-out: MIC); 250 mg/L (≈ 1030 µM) in the assay with S. aureus ATCC 12605 (S. aureus ATCC 12605, read-out: MIC). Further, the MIC in [6] (Staphylococcus simulans ATCC 27848, read-out: MIC) was more than 250 mg/L; in assay [7], 125 mg/L (≈ 516 µM); with S. aureus CPHL VISA Mu50, 125 mg/L (≈ 516 µM); with S. aureus ATCC 12604, 125 mg/L (≈ 516 µM); in [8], 62.5 mg/L (≈ 258 µM); in the assay on S. aureus ATCC 12600-U (S. aureus ATCC 12600-U, read-out: MIC) it was 250 mg/L (≈ 1030 µM). The MBC was 250 mg/L (≈ 1030 µM) in the assay on S. aureus CPHL EMRSA 16 and 125 to 250 mg/L (≈ 516 to 1030 µM) with S. aureus CPHL EMRSA 15. For the same compound, the DDA in the assay with P. acnes PRP-010 is reported as 30.39 (±0.82) mm; in the assay with P. acnes PRP-053 it was 29.72 (±0.48) mm.
